Series [1] has as its target c-Jun N-terminal kinase, JNK (Homo sapiens, UniProt P45983+P53779+P45984). The experiment in a line: Inhibition of JNK in human SW1353 assessed as inhibition of TNFalpha-inuced c-Jun phosphorylation incubated for 30 mins prior to TNFalpha-induction measured after 20 mins by immunostaining method.
The target in series [2] is T1, Mitogen-activated protein kinase 9 (Homo sapiens, UniProt P45984). The experiment in a line: Inhibition of human JNK2 alpha2 using GST-tagged ATF2 as substrate and [gamma33P]ATP incubated for 10 mins prior to substrate addition measured after 30 mins by scintillation counting.
Series [3] deals with T2, Mitogen-activated protein kinase 8 (Homo sapiens, UniProt P45983). Description: Inhibition of human JNK1 alpha1 using GST-tagged ATF2 as substrate and [gamma33P]ATP incubated for 10 mins prior to substrate addition measured after 30 mins by scintillation counting.
In the next series the test system is Caco-2. The experiment in a line: Efflux ratio of permeability from apical to basal to basal to apical side of human Caco2 cells. It counts as ADME, cell-based. A general note: Caco-2 cells form a polarised layer with tight junctions and transporters.
The nature of series [4]: Solubility of the compound in phosphate buffer at pH 6.4. Type of series: physicochemical.
For series [5], the target named is Cyclin-dependent kinase 7 (Homo sapiens, UniProt P50613). The experiment in a line: Binding affinity to T7-phage-tagged CDK7 by PCR analysis.
The target of series [6] is Serine/threonine-protein kinase DCLK3 (Homo sapiens, UniProt Q9C098). Description: Binding affinity to T7-phage-tagged DCAMKL3 by PCR analysis.
Series [7] deals with Serine/threonine-protein kinase RIO2 (Homo sapiens, UniProt Q9BVS4). The experiment in a line: Binding affinity to T7-phage-tagged RIOK2 by PCR analysis.
Series [8] addresses Mitogen-activated protein kinase 7 (Homo sapiens, UniProt Q13164). Description: Binding affinity to T7-phage-tagged MAPK7 by PCR analysis.
Series [9] addresses Myosin light chain kinase family member 4 (Homo sapiens, UniProt Q86YV6). Description: Binding affinity to T7-phage-tagged SgK085 by PCR analysis.
The target of series [10] is Dual specificity mitogen-activated protein kinase kinase 4 (Homo sapiens, UniProt P45985). Description: Binding affinity to T7-phage-tagged MAP2K4 by PCR analysis.
Series [11] deals with Death-associated protein kinase 2 (Homo sapiens, UniProt Q9UIK4). Description: Binding affinity to T7-phage-tagged DAPK2 by PCR analysis.
Series [12] deals with Mitogen-activated protein kinase 15 (Homo sapiens, UniProt Q8TD08). Description: Binding affinity to T7-phage-tagged MAPK15 by PCR analysis.
Series [13] concerns the target Death-associated protein kinase 3 (Homo sapiens, UniProt O43293). Description: Binding affinity to T7-phage-tagged DAPK3 by PCR analysis.
Series [14] has as its target Interleukin-1 receptor-associated kinase 1 (Homo sapiens, UniProt P51617). Description: Binding affinity to T7-phage-tagged IRAK1 by PCR analysis.
Series [15] concerns the target Mitogen-activated protein kinase 13 (Homo sapiens, UniProt O15264). Description: Binding affinity to T7-phage-tagged P38delta by PCR analysis.
The target of series [16] is Death-associated protein kinase 1 (Homo sapiens, UniProt P53355). Description: Binding affinity to T7-phage-tagged DAPK1 by PCR analysis.
Series [17] has as its target Serine/threonine-protein kinase 17A (Homo sapiens, UniProt Q9UEE5). The experiment in a line: Binding affinity to T7-phage-tagged STK17A by PCR analysis.
The target in series [18] is Mitogen-activated protein kinase 12 (Homo sapiens, UniProt P53778). The experiment in a line: Binding affinity to T7-phage-tagged P38gamma by PCR analysis.
Series [19] addresses Inhibitor of nuclear factor kappa-B kinase subunit beta (Homo sapiens, UniProt O14920). The experiment in a line: Binding affinity to T7-phage-tagged IKKbeta by PCR analysis.
The target of series [20] is T1, Mitogen-activated protein kinase 9. The experiment in a line: Binding affinity to T7-phage-tagged JNK2 by PCR analysis.
The target of series [21] is T2, Mitogen-activated protein kinase 8. Description: Binding affinity to T7-phage-tagged JNK1 by PCR analysis.
The nature of series [22]: Oral bioavailability in dog at 3 mg/kg administered using hydroxypropyl methylcellulose as vehicle. Type of series: ADME, organism-based, Canis lupus familiaris. Particulars: in vivo.
Series [23] in a line: […] bioavailability in ip dosed rat. Type of series: ADME, organism-based. Particulars: in vivo, intraperitoneal.
Series [24] can be described thus: Clearance in dog at 3 mg/kg, iv. Type of series: ADME, organism-based, Canis lupus familiaris. As to conditions: in vivo. Also on record: dose 3 mg/kg, route intravenous.
A short description of series [25]: Half life in dog at 3 mg/kg, iv. It counts as ADME, organism-based, Canis lupus familiaris. More on the design: dose 3 mg/kg, route intravenous. As to conditions: in vivo.
Series [26] can be described thus: Oral bioavailability in rat at 3 mg/kg administered using labrasol as vehicle. It counts as ADME, organism-based. Particulars: in vivo.
The nature of series [27]: Half life in rat at 3 mg/kg, iv. Type of series: ADME, organism-based. Also on record: dose 3 mg/kg, route intravenous. As to conditions: in vivo.
Series [28] can be described thus: Oral bioavailability in rat at 3 mg/kg administered using hydroxypropyl methylcellulose as vehicle. Type of series: ADME, organism-based. Particulars: in vivo.
A short description of series [29]: Clearance in rat at 3 mg/kg, iv. Type of series: ADME, organism-based. More on the design: dose 3 mg/kg, route intravenous. As to conditions: in vivo.
Series [30] has as its system Rattus norvegicus. The experiment in a line: Antiasthatic activity in ovalbumin-sensitized Brown Norway rat assessed as inhibition of ovalbumin-induced total white blood cells infiltration into BAL at 10 mg/kg, sc administered 24 hrs prior to ovalbumin-challenge measured after 4 hrs relative to vehicle-treated control. It counts as functional. As to conditions: route subcutaneous.

Series [31] relates to Rattus norvegicus. The experiment in a line: Antiasthatic activity in ovalbumin-sensitized Brown Norway rat assessed as inhibition of ovalbumin-induced neutrophil infiltration into BAL at 10 mg/kg, sc administered 24 hrs prior to ovalbumin-challenge measured after 4 hrs relative to vehicle-treated control. Type of series: functional. As to conditions: route subcutaneous.
Series [32] deals with Ribosomal protein S6 kinase alpha-1 (Homo sapiens, UniProt Q15418). The experiment in a line: Binding affinity to T7-phage-tagged RPS6KA1 by PCR analysis.

Each structure is given as a SMILES string. In brackets after ≈: the same amount, converted by molar mass.

T2 sequence (P45983 whole entry): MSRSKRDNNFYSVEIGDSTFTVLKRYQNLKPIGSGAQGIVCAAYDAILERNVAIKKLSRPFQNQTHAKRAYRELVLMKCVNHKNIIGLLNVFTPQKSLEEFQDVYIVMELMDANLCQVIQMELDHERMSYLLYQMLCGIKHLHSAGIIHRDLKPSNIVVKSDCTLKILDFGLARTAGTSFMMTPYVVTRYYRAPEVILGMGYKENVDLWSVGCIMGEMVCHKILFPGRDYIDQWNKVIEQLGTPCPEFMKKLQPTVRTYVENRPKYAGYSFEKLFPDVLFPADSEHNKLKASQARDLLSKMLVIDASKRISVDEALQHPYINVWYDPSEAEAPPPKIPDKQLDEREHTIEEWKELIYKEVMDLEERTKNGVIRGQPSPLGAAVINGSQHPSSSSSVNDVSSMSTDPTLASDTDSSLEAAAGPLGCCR
T1 sequence (P45984 whole entry): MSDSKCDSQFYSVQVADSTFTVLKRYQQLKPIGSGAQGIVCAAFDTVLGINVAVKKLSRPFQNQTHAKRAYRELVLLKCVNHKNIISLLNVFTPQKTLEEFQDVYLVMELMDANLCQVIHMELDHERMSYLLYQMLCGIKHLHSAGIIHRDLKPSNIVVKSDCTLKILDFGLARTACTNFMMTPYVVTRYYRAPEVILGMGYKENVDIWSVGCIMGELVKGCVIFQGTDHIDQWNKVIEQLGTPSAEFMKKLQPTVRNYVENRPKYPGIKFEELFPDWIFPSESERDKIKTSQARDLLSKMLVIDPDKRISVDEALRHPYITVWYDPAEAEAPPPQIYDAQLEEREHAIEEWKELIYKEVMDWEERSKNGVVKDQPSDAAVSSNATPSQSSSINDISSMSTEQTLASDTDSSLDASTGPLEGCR
Sequence of Serine/threonine-protein kinase DCLK3 (Q9C098 whole entry): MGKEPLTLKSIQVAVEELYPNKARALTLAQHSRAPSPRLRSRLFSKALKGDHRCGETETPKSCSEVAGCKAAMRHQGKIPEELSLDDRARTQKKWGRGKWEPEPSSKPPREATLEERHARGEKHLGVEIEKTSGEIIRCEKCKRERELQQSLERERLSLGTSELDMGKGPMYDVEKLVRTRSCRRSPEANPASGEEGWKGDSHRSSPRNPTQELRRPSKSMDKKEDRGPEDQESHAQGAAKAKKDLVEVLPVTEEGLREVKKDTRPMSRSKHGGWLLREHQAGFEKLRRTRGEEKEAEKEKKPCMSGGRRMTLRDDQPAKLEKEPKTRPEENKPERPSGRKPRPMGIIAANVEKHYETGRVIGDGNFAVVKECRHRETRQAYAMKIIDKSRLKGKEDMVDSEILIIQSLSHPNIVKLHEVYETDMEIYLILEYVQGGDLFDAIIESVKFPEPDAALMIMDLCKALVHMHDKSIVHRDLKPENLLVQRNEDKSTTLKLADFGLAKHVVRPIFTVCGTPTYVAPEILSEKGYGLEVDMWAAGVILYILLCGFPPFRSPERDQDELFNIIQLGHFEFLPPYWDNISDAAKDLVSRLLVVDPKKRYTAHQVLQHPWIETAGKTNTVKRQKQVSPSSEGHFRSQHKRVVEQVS
Sequence of Serine/threonine-protein kinase RIO2 (Q9BVS4 whole entry): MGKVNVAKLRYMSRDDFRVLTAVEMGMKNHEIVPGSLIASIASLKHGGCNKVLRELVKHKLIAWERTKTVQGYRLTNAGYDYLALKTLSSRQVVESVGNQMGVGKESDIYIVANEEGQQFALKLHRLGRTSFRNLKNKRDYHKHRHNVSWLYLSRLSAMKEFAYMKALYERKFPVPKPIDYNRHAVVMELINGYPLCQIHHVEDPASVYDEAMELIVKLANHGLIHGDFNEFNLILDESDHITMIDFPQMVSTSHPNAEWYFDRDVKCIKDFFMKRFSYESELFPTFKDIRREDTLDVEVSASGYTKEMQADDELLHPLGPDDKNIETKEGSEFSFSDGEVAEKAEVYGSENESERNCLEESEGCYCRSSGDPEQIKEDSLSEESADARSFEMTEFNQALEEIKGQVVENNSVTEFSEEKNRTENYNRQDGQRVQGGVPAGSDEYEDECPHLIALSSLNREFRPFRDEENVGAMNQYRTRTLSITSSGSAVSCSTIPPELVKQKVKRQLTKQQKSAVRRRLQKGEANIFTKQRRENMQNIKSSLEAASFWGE
Sequence of Cyclin-dependent kinase 7 (P50613 whole entry): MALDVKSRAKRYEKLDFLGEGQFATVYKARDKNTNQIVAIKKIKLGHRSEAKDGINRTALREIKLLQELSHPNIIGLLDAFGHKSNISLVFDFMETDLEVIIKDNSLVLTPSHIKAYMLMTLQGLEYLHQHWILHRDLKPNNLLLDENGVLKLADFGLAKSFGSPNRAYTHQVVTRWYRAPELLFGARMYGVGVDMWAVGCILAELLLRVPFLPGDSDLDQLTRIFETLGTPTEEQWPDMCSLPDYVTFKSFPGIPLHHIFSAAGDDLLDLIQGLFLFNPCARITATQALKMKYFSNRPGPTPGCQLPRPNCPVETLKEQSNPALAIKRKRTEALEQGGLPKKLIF
Sequence of Myosin light chain kinase family member 4 (Q86YV6 whole entry): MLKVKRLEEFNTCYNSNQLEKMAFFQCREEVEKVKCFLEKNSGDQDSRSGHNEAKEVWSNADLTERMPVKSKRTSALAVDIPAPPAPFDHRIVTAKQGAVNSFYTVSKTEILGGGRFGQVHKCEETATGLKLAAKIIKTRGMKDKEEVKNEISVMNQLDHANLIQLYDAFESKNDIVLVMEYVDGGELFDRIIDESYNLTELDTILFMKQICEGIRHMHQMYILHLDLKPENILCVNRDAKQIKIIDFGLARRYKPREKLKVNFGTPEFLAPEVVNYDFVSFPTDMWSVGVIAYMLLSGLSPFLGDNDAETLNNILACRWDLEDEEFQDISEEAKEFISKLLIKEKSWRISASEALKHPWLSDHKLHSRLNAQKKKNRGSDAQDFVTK
Sequence of Interleukin-1 receptor-associated kinase 1 (P51617 whole entry): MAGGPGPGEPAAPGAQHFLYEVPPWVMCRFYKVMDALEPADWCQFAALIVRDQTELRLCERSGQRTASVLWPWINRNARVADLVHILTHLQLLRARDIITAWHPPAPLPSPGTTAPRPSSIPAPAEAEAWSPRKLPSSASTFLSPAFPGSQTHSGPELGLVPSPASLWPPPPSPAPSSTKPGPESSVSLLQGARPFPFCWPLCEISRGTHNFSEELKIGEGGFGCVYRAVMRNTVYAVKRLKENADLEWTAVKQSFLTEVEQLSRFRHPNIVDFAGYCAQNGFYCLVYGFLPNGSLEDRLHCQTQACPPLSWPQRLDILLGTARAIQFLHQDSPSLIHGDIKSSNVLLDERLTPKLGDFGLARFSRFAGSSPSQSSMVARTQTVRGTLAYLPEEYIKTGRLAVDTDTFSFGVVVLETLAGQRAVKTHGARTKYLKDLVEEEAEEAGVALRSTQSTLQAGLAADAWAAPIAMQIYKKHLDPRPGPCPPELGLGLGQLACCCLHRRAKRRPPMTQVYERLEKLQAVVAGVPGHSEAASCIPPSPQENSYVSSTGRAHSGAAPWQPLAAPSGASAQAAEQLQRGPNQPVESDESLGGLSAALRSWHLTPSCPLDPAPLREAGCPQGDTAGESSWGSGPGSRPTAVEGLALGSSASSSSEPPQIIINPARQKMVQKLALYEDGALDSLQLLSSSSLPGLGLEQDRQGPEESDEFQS
Sequence of Mitogen-activated protein kinase 13 (O15264 whole entry): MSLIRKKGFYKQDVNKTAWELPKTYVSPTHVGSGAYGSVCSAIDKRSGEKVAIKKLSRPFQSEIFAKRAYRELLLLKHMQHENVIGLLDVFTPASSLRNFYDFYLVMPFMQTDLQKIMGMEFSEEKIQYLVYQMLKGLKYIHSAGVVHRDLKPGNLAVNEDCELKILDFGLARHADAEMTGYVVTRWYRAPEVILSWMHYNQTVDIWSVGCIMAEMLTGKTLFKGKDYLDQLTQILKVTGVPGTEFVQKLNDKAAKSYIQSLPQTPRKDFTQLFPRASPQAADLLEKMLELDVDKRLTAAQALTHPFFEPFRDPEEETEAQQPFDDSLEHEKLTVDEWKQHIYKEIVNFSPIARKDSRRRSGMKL
Sequence of Mitogen-activated protein kinase 15 (Q8TD08 whole entry): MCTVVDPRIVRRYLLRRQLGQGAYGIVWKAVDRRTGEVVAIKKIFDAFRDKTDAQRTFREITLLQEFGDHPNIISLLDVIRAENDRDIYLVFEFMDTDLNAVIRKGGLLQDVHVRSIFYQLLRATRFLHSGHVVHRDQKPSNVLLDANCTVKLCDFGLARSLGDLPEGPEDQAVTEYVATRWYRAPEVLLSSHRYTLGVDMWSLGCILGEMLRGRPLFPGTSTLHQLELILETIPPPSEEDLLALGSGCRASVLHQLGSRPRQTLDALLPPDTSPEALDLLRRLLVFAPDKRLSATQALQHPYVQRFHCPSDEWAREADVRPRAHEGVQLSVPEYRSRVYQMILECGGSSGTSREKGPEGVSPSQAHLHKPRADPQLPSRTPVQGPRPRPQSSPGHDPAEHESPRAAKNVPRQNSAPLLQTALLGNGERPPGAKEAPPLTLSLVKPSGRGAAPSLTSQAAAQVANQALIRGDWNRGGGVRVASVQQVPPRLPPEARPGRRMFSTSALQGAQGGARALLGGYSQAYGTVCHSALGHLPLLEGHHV
Sequence of Dual specificity mitogen-activated protein kinase kinase 4 (P45985 whole entry): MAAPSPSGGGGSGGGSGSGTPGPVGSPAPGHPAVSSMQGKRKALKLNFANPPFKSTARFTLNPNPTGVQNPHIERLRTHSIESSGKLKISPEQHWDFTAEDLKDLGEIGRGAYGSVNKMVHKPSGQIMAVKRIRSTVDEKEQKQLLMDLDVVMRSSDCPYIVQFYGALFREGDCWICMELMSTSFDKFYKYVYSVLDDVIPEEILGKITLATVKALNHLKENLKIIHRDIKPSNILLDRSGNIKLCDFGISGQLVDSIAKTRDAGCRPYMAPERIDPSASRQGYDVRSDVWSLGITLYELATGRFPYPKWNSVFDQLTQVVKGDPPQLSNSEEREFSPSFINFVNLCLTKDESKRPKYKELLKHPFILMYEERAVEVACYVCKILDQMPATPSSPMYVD

The term IC50 denotes the concentration that inhibits the measured activity by half. For the compound `COC(=O)c1c(Cc2ccc(S(C)(=O)=O)cc2)c(=O)c2ccc(C(F)(F)F)nc2n1-c1ccccc1`, the IC50 in [1] turned out to be 2700 nM; in series [2], 220 nM; in series [3], 82 nM.

Regarding `COC(=O)c1c(CN2CC[C@@H](S(C)(=O)=O)C2)c(=O)c2ccc(F)cc2n1-c1ccccc1`, the IC50 was 1310 nM in series [2] and 130 nM in series [3].

For the compound `COC(=O)c1c(CN2CCC(S(C)(=O)=O)CC2)c(=O)c2ccc(C(F)(F)F)nc2n1-c1ccccc1`, the 50% inhibitory concentration (IC50) worked out at 4300 nM in series [1] and 290 nM in [2].

Take `COC(=O)c1c(CN2CCN(S(C)(=O)=O)CC2)c(=O)c2ccc(F)cc2n1-c1ccccc1`: the IC50 came to 507 nM in [2] and 65 nM in series [3].

Take `CCNC(=O)c1ccc(Cc2c(C(=O)OC)n(-c3ccccc3)c3nc(C)ccc3c2=O)cc1`: the IC50 in series [1] was found to be 4700 nM; in series [2], 87 nM; in [3], 45 nM.

For `COC(=O)c1c(Cc2ccc(S(=O)(=O)N3CCNCC3)cc2)c(=O)c2ccc(C)nc2n1-c1ccccc1`, the IC50 in [1] was determined as 560 nM; in series [2], 28 nM; in series [3] it was 18 nM.

As a reminder, the solubility is the concentration that dissolves in the medium under given conditions. Low readings indicate a poorly soluble substance, high ones a readily soluble substance. With `COC(=O)c1c(Cc2ccc(S(=O)(=O)N3CCNCC3)cc2)c(=O)c2ccc(Cl)cc2n1-c1ccccc1`, in the series on Caco-2, the Ratio stood at 2. Further, the solubility in series [4] amounted to 23 µg/mL (≈ 41.7 µM). Also, the 50% inhibitory concentration (IC50) turned out to be 1000 nM in series [1], 50 nM in series [2] and 30 nM in series [3].

In the case of `COC(=O)c1c(Cc2ccc(C(=O)NCCO)cc2)c(=O)c2ccc(C)nc2n1-c1ccccc1`, the Ratio with Caco-2 turned out to be 15. The compound further yielded a solubility in series [4] of 78 µg/mL (≈ 165 µM). For the same compound, the figures for the concentration for half-maximal inhibition (IC50) in series [1], in series [2] and in series [3] were 4200 nM, 64 nM and 30 nM, respectively.

Regarding `COC(=O)c1c(Cc2ccc(C(=O)NCCO)cc2)c(=O)c2ccc(C(F)(F)F)nc2n1-c1ccccc1`, the IC50 in series [1] came out at 4300 nM; in series [2], 176 nM; in series [3], 80 nM.

Regarding `O=c1c2ccccc2n(-c2ccccc2)c(=O)n1Cc1ccccc1`, the half-maximal inhibitory concentration (IC50) in series [2] stood at 9300 nM; in series [3], 2800 nM.

`COC(=O)c1c(CN2CC[C@H](S(C)(=O)=O)C2)c(=O)c2ccc(F)cc2n1-c1ccccc1`: the results for the IC50 in series [2] and in [3] were 535 nM and 53 nM, respectively.

As for `COC(=O)c1c(Cc2ccc(S(C)(=O)=O)cc2)c(=O)c2ccc(C)nc2n1-c1cccc(N)c1`, the concentration for half-maximal inhibition (IC50) in [1] stood at 860 nM; in series [2], 32 nM; in series [3], 14 nM.

Consider `CCn1c(=O)c2ccccc2n(-c2ccccc2)c1=O`, for which the IC50 in series [2] was > 20000 nM; in series [3] it was 11000 nM.

`CNS(=O)(=O)c1ccc(Cc2c(C(=O)OC)n(-c3ccccc3)c3cc(Cl)ccc3c2=O)cc1`: the half-inhibitory concentration (IC50) in [3] turned out to be 47 nM.

Consider `COC(=O)c1c(CN2CCOCC2)c(=O)c2ccc(F)cc2n1-c1ccccc1`, for which the IC50 in series [2] came out at 900 nM; in [3], 114 nM.

For `O=c1c2ccc(Cl)cc2n(-c2ccccc2)c(=O)n1Cc1ccccc1`, the results for the IC50 in series [2] and in [3] were 3800 nM and 2300 nM, respectively.

`COC(=O)c1c(Cc2ccccc2)c(=O)c2ccc(Cl)cc2n1-c1ccccc1`: the values for the IC50 in series [2] and in series [3] were 960 nM and 370 nM, respectively.

Consider `COC(=O)c1c(CN2CCC(S(C)(=O)=O)CC2)c(=O)c2ccc(C)nc2n1-c1ccccc1`, for which the IC50 in series [1] turned out to be 430 nM; in series [2], 190 nM.

Consider `COC(=O)c1c(Cc2ccc(S(=O)(=O)CCO)cc2)c(=O)c2ccc(F)cc2n1-c1ccccc1`, for which the 50% inhibitory concentration (IC50) worked out at 2500 nM in series [1], 219 nM in [2] and 58 nM in [3].

Compound `COC(=O)c1c(Cc2ccc(S(=O)(=O)N3CCNCC3)cc2)c(=O)c2ccc(F)cc2n1-c1ccccc1` displayed a solubility in series [4] of 37 µg/mL (≈ 69.1 µM). Moreover, the values for the concentration for half-maximal inhibition (IC50) in series [1], in series [2] and in [3] were 1700 nM, 70 nM and 30 nM, respectively.

For orientation: Kd means the equilibrium constant for the complex coming apart. Low values mean higher affinity, high ones lower affinity. The bioavailability is the share of a dose that reaches the circulation, judged against a reference dose that is usually intravenous. Broadly, the clearance is the rate of elimination divided by the concentration. A high value points to a high capacity for elimination. The half-life is the time needed for the level to fall by half in the phase considered. A high value points to slow loss. By inhibition in vivo is commonly meant the drop in the measured response relative to a control, in per cent. For the compound `COC(=O)c1c(Cc2ccc(C(=O)NCCO)cc2)c(=O)c2ccc(Cl)cc2n1-c1ccccc1`, the Kd in series [5], in [6], in [7], in [8], in series [9] and in series [10] was > 10000 nM each time. The Kd in series [11], in series [12], in series [13], in series [14], in [15] and in [16] was > 10000 nM each time. Further, the Kd was > 10000 nM in [17]; > 10000 nM in [18]; > 10000 nM in series [19]; 170 nM in [20]; 62 nM in [21]; > 10000 nM in series [32]. Further, the bioavailability in series [22] worked out at 40%; in [23] it was 100%; in series [26] it was 43%; in [28] it was 6%. Further, the clearance was 3.4 mL/min/kg in [24] and 25 mL/min/kg in series [29]. Further, the values for the half-life in series [25] and in series [27] were 2.5 h and 1 h, respectively. For the same compound, the Ratio with Caco-2 is 7. Besides, the solubility in series [4] was found to be 8.5 µg/mL (≈ 17.3 µM). Besides, the figures for the IC50 in [1], in [2] and in [3] were 3000 nM, 170 nM and 62 nM, respectively. In addition, the inhibition in vivo at 10 mg/kg was 40% in the series with Rattus norvegicus [30] and 55% with Rattus norvegicus [31].

With `CCNC(=O)c1ccc(Cc2c(C(=O)OC)n(-c3ccccc3)c3cc(Cl)ccc3c2=O)cc1`, the IC50 in series [2] was found to be 94 nM; in [3], 38 nM.

Consider `COC(=O)c1c(CN2CCC(S(C)(=O)=O)CC2)c(=O)c2ccc(F)cc2n1-c1ccccc1`, for which the Ratio in the series with Caco-2 is recorded as 2. The compound further came in with a solubility in [4] of 34 µg/mL (≈ 72 µM). Besides, the IC50 amounted to 830 nM in [1], 140 nM in series [2] and 23 nM in [3].

The values above are taken from ChEMBL document CHEMBL2203077, “Discovery of a novel series of 4-quinolone JNK inhibitors” (Bioorg Med Chem Lett, 2012).
